Experiments:
PC-3 (prostate cancer) = assay: NCI 60-cell one-dose antiproliferative screen; type: cell-based, human; settings: one dose 10 μM
Pim-1 kinase = Pim-1 kinase (Homo sapiens, UniProt P11309); assay: Pim-1 kinase inhibition assay; type: biochemical
SNB-19 (CNS cancer) = assay: NCI 60-cell one-dose antiproliferative screen; type: cell-based, human; settings: one dose 10 μM
HCT-15 (colon cancer) = assay: NCI 60-cell one-dose antiproliferative screen; type: cell-based, human; settings: one dose 10 μM
SF-539 (CNS cancer) = assay: NCI 60-cell one-dose antiproliferative screen; type: cell-based, human; settings: one dose 10 μM
c-Met kinase = c-Met kinase (Homo sapiens, UniProt P08581); assay: c-Met kinase inhibition assay; type: biochemical
A498 (renal cancer) = assay: NCI 60-cell one-dose antiproliferative screen; type: cell-based, human; settings: one dose 10 μM
HOP-62 (NSC lung cancer) = assay: NCI 60-cell one-dose antiproliferative screen; type: cell-based, human; settings: one dose 10 μM
[1] = tested on: NCI/ADR-RES (ovarian cancer); assay: NCI 60-cell one-dose antiproliferative screen; type: cell-based, human; settings: one dose 10 μM
HOP-92 (NSC lung cancer) = assay: NCI 60-cell one-dose antiproliferative screen; type: cell-based, human; settings: one dose 10 μM
[2] = tested on: A549/ATCC (NSC lung cancer); assay: NCI 60-cell one-dose antiproliferative screen; type: cell-based, human; settings: one dose 10 μM
MDA-MB-435 (melanoma) = assay: NCI 60-cell one-dose antiproliferative screen; type: cell-based, human; settings: one dose 10 μM
UO-31 (renal cancer) = assay: NCI 60-cell one-dose antiproliferative screen; type: cell-based, human; settings: one dose 10 μM
T-47D (breast cancer) = assay: NCI 60-cell one-dose antiproliferative screen; type: cell-based, human; settings: one dose 10 μM
OVCAR-4 (ovarian cancer) = assay: NCI 60-cell one-dose antiproliferative screen; type: cell-based, human; settings: one dose 10 μM

c-Met kinase, sequence (P08581 25-1390): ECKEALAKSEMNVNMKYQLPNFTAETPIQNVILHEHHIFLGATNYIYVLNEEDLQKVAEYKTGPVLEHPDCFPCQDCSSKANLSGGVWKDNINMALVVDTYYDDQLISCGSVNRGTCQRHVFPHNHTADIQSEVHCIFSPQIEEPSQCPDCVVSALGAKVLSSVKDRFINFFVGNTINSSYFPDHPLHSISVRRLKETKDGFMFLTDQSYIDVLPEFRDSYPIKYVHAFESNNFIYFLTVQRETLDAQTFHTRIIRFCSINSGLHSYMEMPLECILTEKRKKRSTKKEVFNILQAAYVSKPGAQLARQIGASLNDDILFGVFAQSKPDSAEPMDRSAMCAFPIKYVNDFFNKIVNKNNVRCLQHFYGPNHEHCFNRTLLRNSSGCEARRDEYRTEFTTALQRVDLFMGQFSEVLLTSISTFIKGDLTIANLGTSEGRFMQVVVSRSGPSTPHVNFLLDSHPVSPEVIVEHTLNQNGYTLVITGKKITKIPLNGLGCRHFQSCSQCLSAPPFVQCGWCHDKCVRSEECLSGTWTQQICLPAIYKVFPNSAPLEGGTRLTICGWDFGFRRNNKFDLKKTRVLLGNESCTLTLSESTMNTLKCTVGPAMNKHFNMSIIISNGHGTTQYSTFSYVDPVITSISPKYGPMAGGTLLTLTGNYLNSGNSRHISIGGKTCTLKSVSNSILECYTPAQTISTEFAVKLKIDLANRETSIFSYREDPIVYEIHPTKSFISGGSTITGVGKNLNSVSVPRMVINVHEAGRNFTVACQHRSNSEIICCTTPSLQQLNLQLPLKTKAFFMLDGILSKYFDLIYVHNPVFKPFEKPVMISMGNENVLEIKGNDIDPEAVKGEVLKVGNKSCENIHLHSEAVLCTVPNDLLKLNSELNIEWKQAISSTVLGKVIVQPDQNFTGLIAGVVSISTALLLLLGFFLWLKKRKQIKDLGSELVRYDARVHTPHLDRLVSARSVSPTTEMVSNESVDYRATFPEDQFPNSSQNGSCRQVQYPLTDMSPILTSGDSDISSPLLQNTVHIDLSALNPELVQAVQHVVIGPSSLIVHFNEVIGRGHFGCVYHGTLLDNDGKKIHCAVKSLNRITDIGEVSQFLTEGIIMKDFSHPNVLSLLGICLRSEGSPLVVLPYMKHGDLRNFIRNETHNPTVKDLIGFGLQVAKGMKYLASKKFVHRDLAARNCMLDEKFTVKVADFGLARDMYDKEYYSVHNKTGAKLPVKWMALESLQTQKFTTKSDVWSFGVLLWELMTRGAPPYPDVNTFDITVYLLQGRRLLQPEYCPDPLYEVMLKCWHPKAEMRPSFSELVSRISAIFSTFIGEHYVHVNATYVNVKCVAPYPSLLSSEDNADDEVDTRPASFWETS
Pim-1 kinase, sequence (P11309 whole entry): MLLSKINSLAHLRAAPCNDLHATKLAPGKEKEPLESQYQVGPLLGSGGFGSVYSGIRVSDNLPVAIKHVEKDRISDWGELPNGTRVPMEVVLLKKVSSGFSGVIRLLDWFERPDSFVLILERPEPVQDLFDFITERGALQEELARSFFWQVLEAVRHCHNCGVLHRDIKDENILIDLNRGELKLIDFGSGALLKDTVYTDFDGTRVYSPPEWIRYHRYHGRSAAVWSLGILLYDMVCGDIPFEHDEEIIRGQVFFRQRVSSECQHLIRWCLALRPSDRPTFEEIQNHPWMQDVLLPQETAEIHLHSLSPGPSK

COc1ccc(-c2nnc3ccc(NN=Cc4ccc(O)cc4)nn23)cc1 [Compound 4g, 4-((2-(3-(4-Methoxyphenyl)-[1,2,4]triazolo[4,3-b]pyridazin-6-yl)hydrazono)methyl)phenol]
GI% (PC-3 (prostate cancer)): 59.52%
IC50 (Pim-1 kinase): 283 ± 10 nM
GI% (SNB-19 (CNS cancer)): 32.46%
GI% (HCT-15 (colon cancer)): 73.30%
GI% (SF-539 (CNS cancer)): 63.61%
IC50 (c-Met kinase): 163 ± 10 nM
GI% (A498 (renal cancer)): — (— GI% is below 15%)
GI% (HOP-62 (NSC lung cancer)): — (— GI% is below 15%)
GI% [1]: 73.98%
GI% (HOP-92 (NSC lung cancer)): 68.67%
GI% [2]: 41.49%
GI% (MDA-MB-435 (melanoma)): 54.20%
GI% (UO-31 (renal cancer)): 69.74%
GI% (T-47D (breast cancer)): 54.64%
GI% (OVCAR-4 (ovarian cancer)): 52.11%

Source: article PMC11420776 (RSC Advances, 2024)
